Values of other authors as cited in US9511078B2, “Self-nanoemulsion of poorly soluble drugs” (Kashiv Pharma, LLC, priority 2013, dated 2016).

Assays:
[1] = high-fat meal (57% fat, 825 calories)

Abiraterone AUC0-∞, fold higher with food [1] [fold] | Abiraterone Cmax, fold higher with food [1] | Log P | Compound
~10 | approximately 17 fold | – | CC(=O)O[C@H]1CC[C@@]2(C)C(=CC[C@@H]3[C@@H]2CC[C@]2(C)C(c4cccnc4)=CC[C@@H]32)C1 [Abiraterone acetate]
– | – | 3.5 | CC(=O)[C@H]1CC[C@H]2[C@@H]3CCC4=CC(=O)CC[C@]4(C)[C@H]3CC[C@]12C [Progesterone, pregn-4-ene-3,20-dione]
